Assay results: patent EP4596574A1, “GLP-1/GCG/GIP TRIPLE-RECEPTOR AGONIST AND USE THEREOF” (Sunshine Lake Pharma Co., Ltd., priority 2022, dated 2024)
Marks after values point to notes of the source that are not given here.

Columns and labels:
GLP-1R = biological target: T1, GLP-1R (Homo sapiens, UniProt P43220); assay: In vitro cell activity, cAMP production in HEK293 cells expressing GLP-1R; format: cell-based
T1 construct: expressed in transfected cells; host or cells: HEK293 (HEK293-GLP-1R)
T1 sequence (P43220 24-463, species assumed): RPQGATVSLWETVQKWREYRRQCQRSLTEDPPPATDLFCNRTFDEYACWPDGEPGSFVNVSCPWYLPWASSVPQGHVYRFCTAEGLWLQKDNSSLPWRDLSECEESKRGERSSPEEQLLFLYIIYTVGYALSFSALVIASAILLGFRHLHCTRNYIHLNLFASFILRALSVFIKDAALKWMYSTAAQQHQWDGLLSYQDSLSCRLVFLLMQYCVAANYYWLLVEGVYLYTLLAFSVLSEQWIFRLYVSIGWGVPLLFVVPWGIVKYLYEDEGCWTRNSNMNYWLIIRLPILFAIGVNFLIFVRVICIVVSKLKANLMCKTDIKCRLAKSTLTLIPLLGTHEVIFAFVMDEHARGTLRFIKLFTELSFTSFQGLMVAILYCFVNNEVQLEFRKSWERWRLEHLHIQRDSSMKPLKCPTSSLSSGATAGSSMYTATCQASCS
Procedure, shortened: (§1)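 HEK293 transfectants, 4×10^5 cells/mL, 384-well. Detection: cAMP-d2 + anti-cAMP cryptate 1:1, RT 1 h dark or 4 °C o/n. Read 665/620 nm; 4-parameter nonlinear fit → EC50.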

GCGR = biological target: T2, GCGR (Homo sapiens, UniProt P47871); assay: In vitro cell activity, cAMP production in HEK293 cells expressing GCGR; format: cell-based
T2 construct: expressed in transfected cells; host or cells: HEK293 (HEK293-GCGR)
T2 sequence (P47871 26-477, species assumed): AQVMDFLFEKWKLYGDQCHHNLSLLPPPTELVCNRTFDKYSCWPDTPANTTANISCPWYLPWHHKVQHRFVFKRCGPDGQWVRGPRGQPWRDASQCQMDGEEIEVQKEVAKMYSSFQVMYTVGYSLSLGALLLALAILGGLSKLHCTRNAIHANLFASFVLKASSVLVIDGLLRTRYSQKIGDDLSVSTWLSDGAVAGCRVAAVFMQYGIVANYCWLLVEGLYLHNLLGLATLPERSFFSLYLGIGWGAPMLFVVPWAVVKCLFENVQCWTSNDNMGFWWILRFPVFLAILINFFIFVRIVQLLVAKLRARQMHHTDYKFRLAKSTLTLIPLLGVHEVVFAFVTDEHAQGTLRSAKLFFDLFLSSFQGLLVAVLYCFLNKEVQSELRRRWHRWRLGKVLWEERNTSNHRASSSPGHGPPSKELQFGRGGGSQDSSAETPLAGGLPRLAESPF
Procedure, shortened: as §1

GIPR = biological target: T3, GIPR (Homo sapiens, UniProt P48546); assay: In vitro cell activity, cAMP production in HEK293 cells expressing GIPR; format: cell-based
T3 construct: expressed in transfected cells; host or cells: HEK293 (HEK293-GIPR)
T3 sequence (P48546 22-466): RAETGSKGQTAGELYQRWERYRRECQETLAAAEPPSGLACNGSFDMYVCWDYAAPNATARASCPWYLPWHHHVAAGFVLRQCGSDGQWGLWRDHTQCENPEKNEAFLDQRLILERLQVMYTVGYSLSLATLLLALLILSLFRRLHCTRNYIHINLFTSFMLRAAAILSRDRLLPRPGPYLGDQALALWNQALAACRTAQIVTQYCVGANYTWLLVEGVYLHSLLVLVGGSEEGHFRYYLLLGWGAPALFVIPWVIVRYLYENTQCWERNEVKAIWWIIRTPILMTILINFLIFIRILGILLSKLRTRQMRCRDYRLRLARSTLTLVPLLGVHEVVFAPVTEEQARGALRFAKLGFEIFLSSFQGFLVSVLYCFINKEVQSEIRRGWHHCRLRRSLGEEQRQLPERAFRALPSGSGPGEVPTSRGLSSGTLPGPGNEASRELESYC
Procedure, shortened: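 HEK293 cells expressing human GIPR, thawed and diluted to 4×10^5 cells/mL, are stimulated with test compound. cAMP is measured by HTRF competition between cAMP-d2 and anti-cAMP cryptate. EC50 comes from a four-parameter nonlinear fit of signal ratio against concentration.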

[1] = Glucose tolerance assessment in normal C57BL/6 mice (Example 4); format: in vivo; settings: for Blood glucose level (mM) 15 min / Blood glucose level (mM) 30 min / Blood glucose level (mM) 60 min / Blood glucose level (mM) 90 min / Blood glucose level (mM) 0 min / AUC0-90 min: 3 nmol/kg s.c. single dose, 24 h after administration; for Blood glucose level (mM) 15 min: 15 min after 2 g/kg glucose i.p.; for Blood glucose level (mM) 30 min: 30 min after 2 g/kg glucose i.p.; for Blood glucose level (mM) 60 min: 60 min after 2 g/kg glucose i.p.; for Blood glucose level (mM) 90 min: 90 min after 2 g/kg glucose i.p.; for Blood glucose level (mM) 0 min: basal before 2 g/kg glucose i.p.; for AUC0-90 min: blood glucose AUC, 2 g/kg glucose i.p.
Method: Twelve hours after the single administration, the animals were fasted for 12 hours and had free access to water. Blood was collected from the tail vein to determine the basal blood glucose level of each group of animals, and then 2 g/kg glucose solution was injected intraperitoneally. Blood glucose was tested at 15, 30, 60, and 90 min after glucose administration. The blood glucose concentration-time curve was drawn according to the blood glucose values measured at different time points, and the AUC0~90min of each dose group was calculated as shown in Table 4 and Figure 1. Table 4: Effects of single administration of HEC-PT74, HEC-PT75, HEC-PT77, HEC-PT78, HEC-PT80, and HEC-PT82 on glucose tolerance in normal C57 mice 24 h after administration

[2] = In vivo efficacy evaluation in db/db mouse model (blood glucose); set-up: species or system db/db mice
Method: Blood glucose was tested before each administration.

Structure (SMILES) | EC50 (GLP-1R) [nM] | EC50 (GCGR) [nM] | EC50 (GIPR) [nM] | Blood glucose level (mM) 15 min [1] [mM] | Blood glucose level (mM) 30 min [1] [mM] | Blood glucose level (mM) 60 min [1] [mM] | Blood glucose level (mM) 90 min [1] [mM] | Blood glucose level (mM) 0 min [1] [mM] | AUC0-90 min [1] | further results
CC[C@H](C)[C@H](NC(=O)[C@H](Cc1ccccc1)NC(=O)[C@H](CCC(=O)O)NC(=O)[C@H](CCC(N)=O)NC(=O)[C@H](CCC(N)=O)NC(=O)[C@H](C)NC(=O)[C@H](CCCCNC(=O)COCCOCCNC(=O)CC[C@H](NC(=O)CCCCCCCCCCCCCCCCC(=O)O)C(=O)O)NC(=O)[C@H](CCC(=O)O)NC(=O)[C@H](CC(=O)O)NC(=O)[C@H](CC(C)C)NC(=O)[C@H](CC(C)C)NC(=O)[C@@H](NC(=O)[C@H](CO)NC(=O)[C@H](Cc1ccc(O)cc1)NC(=O)[C@H](CC(=O)O)NC(=O)[C@H](CO)NC(=O)[C@@H](NC(=O)[C@](C)(Cc1ccccc1F)NC(=O)[C@@H](NC(=O)CNC(=O)[C@H](Cc1c[nH]cn1)NC(=O)C(C)(C)NC(=O)[C@@H](N)Cc1ccc(O)cc1)[C@@H](C)O)[C@@H](C)O)[C@@H](C)CC)C(=O)N[C@@H](CCC(=O)O)C(=O)N[C@@H](Cc1c[nH]c2ccccc12)C(=O)N[C@@H](CC(C)C)C(=O)N[C@@H](CC(C)C)C(=O)N[C@@H](C)C(=O)NCC(=O)NCC(=O)N1CCC[C@H]1C(=O)N[C@@H](CO)C(=O)N[C@@H](CO)C(=O)NCC(=O)N[C@@H](C)C(=O)N1CCC[C@H]1C(=O)N1CCC[C@H]1C(=O)N1CCC[C@H]1C(=O)N[C@@H](CO)C(=O)O [HEC-PT80] | 0.341 | 1.27 | 0.0506 | 11.1 ± 2.0 | 9.3 ± 1.7 | 7.2 ± 1.0 | 5.5 ± 0.5 | 4.6 ± 1.1 | 707.6±98.4^a | improvement of glucose tolerance compared with LY3298176 ([1]; 24 hours after a single administration, 3 nmol/kg): more effective in improving glucose tolerance than the positive control LY3298176
CC[C@H](C)[C@H](NC(=O)[C@H](Cc1ccccc1)NC(=O)[C@H](C)NC(=O)[C@H](CCCNC(=N)N)NC(=O)[C@H](CCC(N)=O)NC(=O)[C@H](C)NC(=O)[C@H](CCCCNC(=O)COCCOCCNC(=O)CC[C@H](NC(=O)CCCCCCCCCCCCCCCCCCC(=O)O)C(=O)O)NC(=O)[C@H](CCC(=O)O)NC(=O)[C@H](CC(=O)O)NC(=O)[C@H](CC(C)C)NC(=O)[C@H](CC(C)C)NC(=O)[C@@H](NC(=O)[C@H](CO)NC(=O)[C@H](Cc1ccc(O)cc1)NC(=O)[C@H](CC(=O)O)NC(=O)[C@H](CO)NC(=O)[C@@H](NC(=O)[C@](C)(Cc1ccccc1F)NC(=O)[C@@H](NC(=O)CNC(=O)[C@H](CCC(N)=O)NC(=O)C(C)(C)NC(=O)[C@@H](N)Cc1ccc(O)cc1)[C@@H](C)O)[C@@H](C)O)[C@@H](C)CC)C(=O)N[C@@H](CCC(=O)O)C(=O)N[C@@H](Cc1ccc(O)cc1)C(=O)N[C@@H](CC(C)C)C(=O)N[C@@H](CC(C)C)C(=O)N[C@@H](CCC(=O)O)C(=O)NCC(=O)NCC(=O)N1CCC[C@H]1C(=O)N[C@@H](CO)C(=O)N[C@@H](CO)C(=O)NCC(=O)N[C@@H](C)C(=O)N1CCC[C@H]1C(=O)N1CCC[C@H]1C(=O)N1CCC[C@H]1C(=O)N[C@@H](CO)C(=O)O [HEC-PT85] | 0.255 | 0.602 | 0.237 | – | – | – | – | – | – | blood glucose after administration ([2]; db/db mice, 10 nmol/kg): significantly reduce blood glucose; Random blood glucose (mM) D0 ([2]; db/db mice, 10 nmol/kg s.c. once every three days, D0 (before first dose)): 26.2 ± 2.8 mM; Random blood glucose (mM) D3 ([2]; db/db mice, 10 nmol/kg s.c. once every three days, D3): 11.8 ± 3.6 mM; Random blood glucose (mM) D4 ([2]; db/db mice, 10 nmol/kg s.c. once every three days, D4): 17.6 ± 3.1 mM; Random blood glucose (mM) D5 ([2]; db/db mice, 10 nmol/kg s.c. once every three days, D5): 20.2 ± 5.5 mM; Random blood glucose (mM) D6 ([2]; db/db mice, 10 nmol/kg s.c. once every three days, D6): 17.3 ± 3.4 mM; Random blood glucose (mM) D7 ([2]; db/db mice, 10 nmol/kg s.c. once every three days, D7): 21.3 ± 3.5 mM; Random blood glucose (mM) D10 ([2]; db/db mice, 10 nmol/kg s.c. once every three days, D10): 11.8 ± 3.8 mM; Random blood glucose (mM) D13 ([2]; db/db mice, 10 nmol/kg s.c. once every three days, D13): 14.7 ± 4.9 mM; Random blood glucose (mM) D16 ([2]; db/db mice, 10 nmol/kg s.c. once every three days, D16): 12.8 ± 3.9 mM; Random blood glucose (mM) D19 ([2]; db/db mice, 10 nmol/kg s.c. once every three days, D19): 13.7 ± 2.5 mM; Random blood glucose (mM) D22 ([2]; db/db mice, 10 nmol/kg s.c. once every three days, D22): 17.2 ± 4.2 mM; Random blood glucose (mM) D25 ([2]; db/db mice, 10 nmol/kg s.c. once every three days, D25): 15.7±4.5^a mM; Random blood glucose (mM) 6 h ([2]; db/db mice, 10 nmol/kg s.c., 6 h): 15.3 ± 5.4 mM; Random blood glucose (mM) 24 h ([2]; db/db mice, 10 nmol/kg s.c., 24 h): 10.1 ± 3.7 mM; Random blood glucose (mM) 48 h ([2]; db/db mice, 10 nmol/kg s.c., 48 h): 12.9 ± 4.2 mM; time at which blood glucose levels reached the lowest level ([2]; db/db mice, 10 nmol/kg, after administration): about 24 hours; blood glucose lowering after long-term administration compared with LY3298176 ([2]; db/db mice, long-term repeated administration): not inferior to the positive control LY3298176; blood glucose reducing effect after administration compared with LY3298176 ([2]; db/db mice, same dose 10 nmol/kg): slightly better than the positive control LY3298176; blood glucose level after long-term administration ([2]; type II diabetes model db/db mice): significantly improve the blood glucose level
CC[C@H](C)[C@H](NC(=O)[C@H](Cc1ccccc1)NC(=O)[C@H](CCC(=O)O)NC(=O)[C@H](CCC(N)=O)NC(=O)[C@H](CCC(N)=O)NC(=O)[C@H](C)NC(=O)[C@H](CCCCNC(=O)COCCOCCNC(=O)CC[C@H](NC(=O)CCCCCCCCCCCCCCCCCCC(=O)O)C(=O)O)NC(=O)[C@H](CCC(=O)O)NC(=O)[C@H](CC(=O)O)NC(=O)[C@H](CC(C)C)NC(=O)[C@H](CC(C)C)NC(=O)[C@@H](NC(=O)[C@H](CO)NC(=O)[C@H](Cc1ccc(O)cc1)NC(=O)[C@H](CC(=O)O)NC(=O)[C@H](CO)NC(=O)[C@@H](NC(=O)[C@](C)(Cc1ccccc1F)NC(=O)[C@@H](NC(=O)CNC(=O)[C@H](CCC(N)=O)NC(=O)C(C)(C)NC(=O)[C@@H](N)Cc1ccc(O)cc1)[C@@H](C)O)[C@@H](C)O)[C@@H](C)CC)C(=O)N[C@@H](CCC(=O)O)C(=O)N[C@@H](Cc1c[nH]c2ccccc12)C(=O)N[C@@H](CC(C)C)C(=O)N[C@@H](CC(C)C)C(=O)N[C@@H](CCC(=O)O)C(=O)NCC(=O)NCC(=O)N1CCC[C@H]1C(=O)N[C@@H](CO)C(=O)N[C@@H](CO)C(=O)NCC(=O)N[C@@H](C)C(=O)N1CCC[C@H]1C(=O)N1CCC[C@H]1C(=O)N1CCC[C@H]1C(=O)N[C@@H](CO)C(=O)O [HEC-PT78] | 0.532 | 4.5 | 0.215 | 15.8 ± 2.6 | 12.0 ± 2.5 | 9.2 ± 1.5 | 7.3 ± 0.7 | 4.6 ± 0.6 | 927.1±135.2^a | –
